In the NIST ThermoML archive (doi:10.1016/j.jct.2013.11.027):

Tests used:
[1] = xn = mol fraction of the nth substance listed; conditions: 101 kPa, Liquid; for speed of sound: Sing-around technique in a fixed-path interferometer; for mass density: Vibrating tube method
[2] = refractive index (Na D-line) (dimensionless); xn = mol fraction of the nth substance listed; conditions: 101 kPa, Liquid, Standard Abbe refractometry

CCCCCCCC[n+]1ccn(C)c1.F[B-](F)(F)F [1-methyl-3-octylimidazolium tetrafluoroborate] + C1CCOC1
Conditions | mass density, 298.15 K [kg/m3] | mass density, 308.15 K [kg/m3] | mass density, 318.15 K [kg/m3] | refractive index, 298.15 K | refractive index, 308.15 K | refractive index, 318.15 K | speed of sound, 298.15 K [m/s] | speed of sound, 308.15 K [m/s] | speed of sound, 318.15 K [m/s]
[1], x1 = 0.0963 | 944.168 | 934.385 | 924.531 | – | – | – | 1310.8 | 1268.5 | 1226.8
[1], x1 = 0.2018 | 987.574 | 978.487 | 969.198 | – | – | – | 1351.2 | 1313.4 | 1276.2
[1], x1 = 0.312 | 1018.46 | 1010.19 | 1001.93 | – | – | – | 1384.9 | 1350.7 | 1317.1
[1], x1 = 0.4027 | 1037.11 | 1029.2 | 1021.32 | – | – | – | 1406.3 | 1374.4 | 1343
[1], x1 = 0.4917 | 1051.3 | 1043.65 | 1035.82 | – | – | – | 1422.9 | 1392.6 | 1362.8
[1], x1 = 0.6241 | 1067.66 | 1060.32 | 1053.02 | – | – | – | 1442.5 | 1413.9 | 1385.9
[1], x1 = 0.6862 | 1073.96 | 1066.73 | 1059.49 | – | – | – | 1450.2 | 1422.2 | 1394.9
[1], x1 = 0.7615 | 1080.76 | 1073.65 | 1066.46 | – | – | – | 1458.6 | 1431.1 | 1404.5
[1], x1 = 0.8612 | 1088.58 | 1081.55 | 1074.56 | – | – | – | 1470.2 | 1444.2 | 1416.3
[1], x1 = 1 | 1097.61 | 1090.9 | 1084.17 | – | – | – | 1481.1 | 1453.9 | 1428.2
[2], x1 = 0.0963 | – | – | – | 1.41425 | 1.40956 | 1.40529 | – | – | –
[2], x1 = 0.2018 | – | – | – | 1.42039 | 1.4162 | 1.41236 | – | – | –
[2], x1 = 0.312 | – | – | – | 1.42432 | 1.42045 | 1.41715 | – | – | –
[2], x1 = 0.4027 | – | – | – | 1.42658 | 1.4228 | 1.41965 | – | – | –
[2], x1 = 0.4917 | – | – | – | 1.42817 | 1.42451 | 1.42147 | – | – | –
[2], x1 = 0.6241 | – | – | – | 1.42996 | 1.42631 | 1.42348 | – | – | –
[2], x1 = 0.6862 | – | – | – | 1.43062 | 1.42695 | 1.42415 | – | – | –
[2], x1 = 0.7615 | – | – | – | 1.43129 | 1.4277 | 1.42493 | – | – | –
[2], x1 = 0.8612 | – | – | – | 1.43207 | 1.42846 | 1.4258 | – | – | –
[2], x1 = 1 | – | – | – | 1.43296 | 1.42939 | 1.42684 | – | – | –

CCCCCCn1cc[n+](C)c1.F[B-](F)(F)F [1-hexyl-3-methylimidazolium tetrafluoroborate] + C1COCCO1
Conditions | mass density, 298.15 K [kg/m3] | mass density, 308.15 K [kg/m3] | mass density, 318.15 K [kg/m3] | refractive index, 298.15 K | refractive index, 308.15 K | refractive index, 318.15 K | speed of sound, 298.15 K [m/s] | speed of sound, 308.15 K [m/s] | speed of sound, 318.15 K [m/s]
[1], x1 = 0.0956 | 1060.24 | 1050.11 | 1040.21 | – | – | – | 1373.3 | 1332.3 | 1291
[1], x1 = 0.2039 | 1084.24 | 1074.91 | 1065.52 | – | – | – | 1403 | 1364.1 | 1324.8
[1], x1 = 0.2945 | 1098.98 | 1089.94 | 1081.15 | – | – | – | 1422 | 1384.1 | 1346.8
[1], x1 = 0.368 | 1107.75 | 1099.02 | 1090.42 | – | – | – | 1434 | 1398.1 | 1362.7
[1], x1 = 0.4876 | 1119.03 | 1110.69 | 1102.5 | – | – | – | 1450.5 | 1417.6 | 1384.3
[1], x1 = 0.5831 | 1125.92 | 1118.09 | 1110.2 | – | – | – | 1461 | 1430.1 | 1398.7
[1], x1 = 0.6816 | 1131.92 | 1124.09 | 1116.5 | – | – | – | 1470.5 | 1441.5 | 1412.2
[1], x1 = 0.7695 | 1136.19 | 1128.65 | 1121.26 | – | – | – | 1478.1 | 1450.5 | 1423.2
[1], x1 = 0.8594 | 1140.02 | 1132.69 | 1125.9 | – | – | – | 1485.9 | 1459.7 | 1433.3
[1], x1 = 1 | 1145.11 | 1137.71 | 1130.49 | – | – | – | 1496.7 | 1472 | 1447.7
[2], x1 = 0.0956 | – | – | – | 1.4241 | 1.42009 | 1.41587 | – | – | –
[2], x1 = 0.2039 | – | – | – | 1.42717 | 1.42329 | 1.41958 | – | – | –
[2], x1 = 0.2945 | – | – | – | 1.42874 | 1.42525 | 1.42174 | – | – | –
[2], x1 = 0.368 | – | – | – | 1.42944 | 1.42625 | 1.42294 | – | – | –
[2], x1 = 0.4876 | – | – | – | 1.43034 | 1.42727 | 1.42429 | – | – | –
[2], x1 = 0.5831 | – | – | – | 1.43075 | 1.42802 | 1.42519 | – | – | –
[2], x1 = 0.6816 | – | – | – | 1.43106 | 1.42839 | 1.42546 | – | – | –
[2], x1 = 0.7695 | – | – | – | 1.43149 | 1.42861 | 1.42574 | – | – | –
[2], x1 = 0.8594 | – | – | – | 1.43152 | 1.42868 | 1.42604 | – | – | –
[2], x1 = 1 | – | – | – | 1.43167 | 1.4289 | 1.42612 | – | – | –
